Assay: xn = mol fraction of the nth substance listed
Details: 101.3 kPa

CCCC[n+]1ccccc1.F[B-](F)(F)F + O
viscosity [mPa·s]
Details	x2 = 0	x2 = 0.11	x2 = 0.263	x2 = 0.391	x2 = 0.414	x2 = 0.549	x2 = 0.637	x2 = 0.724	x2 = 0.856
283.15 K	464	211	–	44.9	41.27	22.77	–	–	5.53
288.15 K	313	–	60.2	–	32.98	18.49	–	–	4.58
293.15 K	223	115.6	47.4	29.05	26.81	15.37	10.82	7.61	3.88
298.15 K	163.3	88.1	38.1	23.97	22.21	12.99	9.16	–	3.36
303.15 K	123	–	31.12	20.01	18.63	–	8	5.65	2.94
308.15 K	94.2	53.4	25.87	16.93	15.81	9.61	7.01	4.92	2.6
313.15 K	70.3	43.2	21.69	14.51	13.58	–	6.13	–	2.32
318.15 K	55.8	35.5	18.48	12.53	11.77	7.41	5.43	3.85	2.09
323.15 K	45.1	29.49	15.87	10.93	10.22	6.57	4.78	3.46	1.9
328.15 K	37.1	–	13.77	9.58	9.06	5.86	4.29	–	1.74
333.15 K	30.9	21.18	12.04	8.6	–	5.19	3.87	2.82	1.61
338.15 K	26.01	18.21	10.57	7.71	7.17	4.68	–	2.58	1.5
343.15 K	22.17	–	–	–	6.37	4.24	3.22	2.37	1.4
353.15 K	15.84	–	–	–	–	–	–	–	–

From a compilation of properties of binary mixtures (doi:10.1016/j.jct.2008.09.001)
